ChEMBL document CHEMBL1143533, “A short, stereoselective, and common approach for the synthesis of 4,5-disubstituted delta-lactones simplactone B and its C-5 analogue” (Bioorg Med Chem Lett, 2005)

Assay: Inhibitory concentration against human breast cancer cell line (HBL-100) by MTT method
Type: functional, cell-based
Settings: Cancer cell lines

Compound: CCCCCCCCCCCCCC[C@@H]1COC(=O)C[C@H]1O
- IC50: 0.176 µM
